Data published in patent US8551984B2, “Aminopyrimidines as SYK inhibitors” (Merck Sharp & Dohme Corp., priority 2009, dated 2013).

Molecular target: recombinant human SYK (GST-hSYK fusion protein) (Homo sapiens, UniProt P43405)
Experiment: biochemical
[1] = rhSYK Activity (IC50), recombinant human GST-SYK 5 pM, ATP 25 μM, biotinylated substrate peptide 250 nM, HTRF, 10-dose titration

Excerpt: Homogeneous Time-Resolved Fluorescence (HTRF) Assay for the Recombinant Human SYK Enzyme:

For `Cc1cc(Nc2ncc(Cl)c(C)n2)cc(-c2cnc(C3(O)CCC3)s2)c1` [Example 103, 1-(5-{3-[(5-chloro-4-methylpyrimidin-2-yl)amino]-5-methylphenyl}-1,3-thiazol-2-yl)cyclobutanol], the IC50 [1] was less than 100 nM.
With `Cc1cc(Nc2nccc(C(F)(F)F)n2)cc(-c2cnc(CCC(=O)NCCO)s2)c1` [Example 79-6] the IC50 [1] was less than 100 nM.
Compound `Cc1cc(Nc2nccc(C(C)C)n2)cc(-c2cnc(C3(O)CCCN(C(=O)CC(=O)O)CC3)s2)c1` (stereo not drawn) [Example 54D-7] has an IC50 (rhSYK Activity, Table 54D) of less than 100 nM.
`Cc1cc(Nc2nccc(C)n2)cc(-c2cnc(C3(O)CCC(C(=O)O)CC3(C)C)s2)c1` (stereo not drawn) [Example 113A-92] was tested, and the IC50 (rhSYK Activity, Table 113A) was less than 100 nM.
`COc1nc(Nc2cc(C)cc(-c3cnc(C4(NC(=O)NC(N)=O)CCC4)s3)c2)ncc1Cl` [65-8] showed an IC50 (rhSYK Activity, Table 65) of less than 100 nM.
With `Cc1cc(Nc2nccc(C(C)(C)C)n2)cc(-c2cnc(C3(O)CCC(C(=O)O)C(C)(C)C3)s2)c1` (stereo not drawn) [116A-32] the IC50 (rhSYK Activity, Table 116A) was less than 100 nM.
`Cc1cc(Nc2nccc(C(F)(F)F)n2)cc(-c2cnc(C3(O)CCN(C(=O)C(N)=O)C3)s2)c1` (stereo not drawn) [54B-23] showed an IC50 (rhSYK Activity, Table 54B) of less than 100 nM.
`Cc1cc(Nc2nccc(C(C)(O)C3CC3)n2)cc(-c2cnc(C3(O)CCC(C(=O)O)C(C)(C)C3)s2)c1` (stereo not drawn) [Example 100A-24] was tested, and the IC50 [1] was less than 100 nM.
Work on `CCOC(=O)CC(=O)N1CCCC(O)(c2ncc(-c3cc(C)cc(Nc4nccc(C(F)(F)F)n4)c3)s2)CC1` (stereo not drawn) [Example 54D-73] yielded an IC50 (rhSYK Activity, Table 54D) of less than 100 nM.
`O=C1CC(c2ncc(-c3cccc(Nc4nccc(C(F)(F)F)n4)c3)s2)CN1` (stereo not drawn) [Example 21-14] gave an IC50 (rhSYK Activity, Table 21) of less than 100 nM.
For `Cc1cc(Nc2nccc(C(F)(F)F)n2)cc(-c2cnc(-c3cn[nH]c3)s2)c1` [Example 114, N-{3-methyl-5-[2-(1H-pyrazol-4-yl)-1,3-thiazol-5-yl]phenyl}-4-(trifluoromethyl)pyrimidin-2-amine], the IC50 [1] was less than 100 nM.
With `COC(=O)C1(C(=O)N2CCC(O)(c3ncc(-c4cc(C)cc(Nc5nccc(C(F)(F)F)n5)c4)s3)CC2)CC1` [Example 54A-54] the IC50 (RHSYK Activity, Table 54A) was less than 100 nM.
For `Cc1cc(Nc2nccc(C(F)(F)F)n2)cc(-c2cnc(C(=O)N3CCS(=O)(=O)CC3)s2)c1` [Example 87B-14], the IC50 [1] was 100 to 1000 nM.
`COCc1cc(Nc2nccc(C(F)(F)F)n2)cc(-c2cnc(C3(O)CCNC(=O)CC3)s2)c1` (stereo not drawn) [Example 10A-4] gave an IC50 (rhSYK Activity, Table 10, Formula A) of less than 100 nM.
Compound `Cc1cc(Nc2nccc(C(F)(F)F)n2)cc(-c2cnc(CNC3CS(=O)(=O)CC3O)s2)c1` (stereo not drawn) [Example 88A-57] has an IC50 [1] of less than 100 nM.
In the case of `CC(C)(O)c1ncc(-c2cc(Nc3nccc(C(F)(F)F)n3)cc(C(F)F)c2)s1` [28-1], the IC50 (hSYK Activity, table of Example 28-1) is reported as less than 100 nM.
For `C=C(c1ccc(C(=O)OC)cc1)c1ncc(-c2cc(C)cc(Nc3nccc(C(F)(F)F)n3)c2)s1` [Example 113D-2], the IC50 (rhSYK Activity, Table 113D, upper part) was 100 to 1000 nM.
With `Cc1cc(Nc2nccc(C(F)(F)F)n2)cc(-c2cnc(-c3ccc[nH]3)s2)c1` [Example 114-8] the IC50 [1] was less than 100 nM.
In the case of `COc1nc(Nc2cc(C)cc(-c3cnc(C4(O)CCC(C(=O)O)C(C)(C)C4)s3)c2)ncc1Cl` (stereo not drawn) [116A-36], the IC50 (rhSYK Activity, Table 116A) is reported as less than 100 nM.
`Cc1cc(Nc2nccc(C(F)(F)F)n2)cc(-c2cnc(C3(O)CCN(C(=O)Cn4ccnc4)CC3)s2)c1` [Example 54A-35] was tested, and the IC50 (RHSYK Activity, Table 54A) was less than 100 nM.
Compound `Cc1cc(Nc2ncc(F)cn2)cc(-c2cnc(C(C)(O)C(F)(F)F)s2)c1` (stereo not drawn) [Example 100B-2] has an IC50 [1] of less than 100 nM.
`Cc1cc(Nc2nccc(C(F)(F)F)n2)cc(-c2cnc(C3(O)CCCN(C(=O)c4ncc[nH]4)CC3)s2)c1` (stereo not drawn) [Example 54D-34] was tested, and the IC50 (rhSYK Activity, Table 54D) was less than 100 nM.
`COC(=O)[C@H]1CC[C@](O)(c2ncc(-c3cc(C)cc(Nc4nccc(C5CCC5)n4)c3)s2)CC1(C)C` [Example 101-6] showed an IC50 [1] of less than 100 nM.
Compound `Cc1cc(Nc2nccc(C(F)(F)F)n2)cc(-c2cnc(C(C)(O)CCC(C)(C)C(=O)O)s2)c1` (stereo not drawn) [Example 33D-1] has an IC50 (rhSYK Activity, Table 33D) of less than 100 nM.
`Cc1cc(Nc2nccc(C(F)(F)F)n2)cc(-c2cnc(C3(O)CCCN(C(=O)C4CC4)CC3)s2)c1` (stereo not drawn) [Example 54D-10] showed an IC50 (rhSYK Activity, Table 54D) of less than 100 nM.
With `Cc1cc(Nc2nccc(C(F)(F)F)n2)cc(-c2cnc(C3(O)CCN(C(=O)CC4CCOC4)CC3)s2)c1` (stereo not drawn) [Example 54A-40] the IC50 (RHSYK Activity, Table 54A) was less than 100 nM.
`Cc1cc(Nc2nccc(OC(C)C)n2)cc(-c2cnc([C@@]3(O)CC[C@H](C(=O)O)C(C)(C)C3)s2)c1` [116A-33] gave an IC50 (rhSYK Activity, Table 116A) of less than 100 nM.
